Data: patent US9079876B2, “Imidazole derivatives and preparation method and use thereof” (Beijing Orbiepharm Co., Ltd., priority 2010, dated 2015)

Legend:
[1] = molecular target: T1, cyclooxygenase-1 (COX-1 enzyme) (Homo sapiens, UniProt P23219); assay: Human whole blood in vitro activity assay, COX-1 (TXB2 by EIA); type: cell-based; settings: read-out: IC50 (μg/mL) COX-1 (converted)
T1 construct: from tissue; host or cells: human whole blood without heparin (platelets) from healthy volunteers
Procedure: Human whole blood in vitro activity study: inhibition of activity of cyclooxygenase-1 (COX-1 enzyme) and cyclooxygenase-2 (COX-2 enzyme) in human blood. […] The blood samples were divided into two parts: one was used for detecting COX-1 enzyme activity, and the other was used for detecting COX-2 enzyme activity. The compounds were dissolved in DMSO, and were prepared in advance into 2 μL solutions in respective concentrations of 500, 50, 5, 0.5, 0.05, 0.005, 0.0005 μg/mL. 200 μL whole blood without heparin was added in the tubes containing the compounds, and then incubated at 37° C. for 1 hour. The activity of COX-1 enzyme was detected by determining the amount of thromboxane B2 (TXB2) synthesized by platelet using an EIA kit. Samples tested without the compounds were negative controls. For COX-2, 200 μL whole blood with heparin was added in the tubes containing the compounds and in the tubes containing 10 μg/mL LPS. LPS control and blank control with solvent only were used respectively for determining the maximum value and the background value of the PGE2 produced therefrom. The samples were incubated at 37° C. for 24 hours, and then centrifuged to collect serum/plasma, which was stored at −80° C. for detection by an EIA kit. The EIA kit of Cayman Company was used, the amounts of TXB2 and PGE2 were determined in accordance to the manufacturer's instructions, and the activities of COX-1 and COX-2 were tested respectively.

COX-1 = molecular target: T2, COX-1 (Canis lupus familiaris, UniProt Q8HZR1); assay: Dog whole blood in vitro activity assay, COX-1; type: cell-based, beagle dog; settings: read-out: IC50 (μg/mL) COX-1 (converted)
T2 construct: in vitro activity study using beagle dog whole blood was conducted; from tissue; host or cells: beagle dog whole blood (platelets, by the same method as for human blood)
T2 sequence (Q8HZR1 28-603): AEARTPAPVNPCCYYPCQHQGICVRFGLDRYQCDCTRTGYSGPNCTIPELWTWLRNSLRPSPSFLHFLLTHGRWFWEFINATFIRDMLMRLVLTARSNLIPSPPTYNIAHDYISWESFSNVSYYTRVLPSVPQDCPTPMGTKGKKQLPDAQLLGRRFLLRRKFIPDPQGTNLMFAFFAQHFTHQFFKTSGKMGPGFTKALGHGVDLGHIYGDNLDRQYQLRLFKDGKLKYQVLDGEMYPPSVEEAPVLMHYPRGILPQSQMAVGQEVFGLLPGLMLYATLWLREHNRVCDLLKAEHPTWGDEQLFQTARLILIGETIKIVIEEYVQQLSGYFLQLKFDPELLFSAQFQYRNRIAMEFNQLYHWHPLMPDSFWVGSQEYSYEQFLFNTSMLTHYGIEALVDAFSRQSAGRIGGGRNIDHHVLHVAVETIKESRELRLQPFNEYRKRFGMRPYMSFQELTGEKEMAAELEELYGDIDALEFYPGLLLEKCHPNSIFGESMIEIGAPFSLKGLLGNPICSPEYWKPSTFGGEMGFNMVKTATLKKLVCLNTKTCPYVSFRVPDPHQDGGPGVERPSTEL

[2] = Pharmacokinetic study, intravenous, rats; type: in vivo; settings: male SD rats, IV 2 mg/kg
Procedure: Cimicoxib (cimicoxib) was IV administrated to male SD rats in vivo [2 mg/kg, 2 mg/ml, menstruum: DMSO/PEG 400/30% HP-b-CD ([…])], T1/2 was 3.20 h. The half-life of compound 1 was longer than cimicoxib.

T1 sequence (P23219 24-599): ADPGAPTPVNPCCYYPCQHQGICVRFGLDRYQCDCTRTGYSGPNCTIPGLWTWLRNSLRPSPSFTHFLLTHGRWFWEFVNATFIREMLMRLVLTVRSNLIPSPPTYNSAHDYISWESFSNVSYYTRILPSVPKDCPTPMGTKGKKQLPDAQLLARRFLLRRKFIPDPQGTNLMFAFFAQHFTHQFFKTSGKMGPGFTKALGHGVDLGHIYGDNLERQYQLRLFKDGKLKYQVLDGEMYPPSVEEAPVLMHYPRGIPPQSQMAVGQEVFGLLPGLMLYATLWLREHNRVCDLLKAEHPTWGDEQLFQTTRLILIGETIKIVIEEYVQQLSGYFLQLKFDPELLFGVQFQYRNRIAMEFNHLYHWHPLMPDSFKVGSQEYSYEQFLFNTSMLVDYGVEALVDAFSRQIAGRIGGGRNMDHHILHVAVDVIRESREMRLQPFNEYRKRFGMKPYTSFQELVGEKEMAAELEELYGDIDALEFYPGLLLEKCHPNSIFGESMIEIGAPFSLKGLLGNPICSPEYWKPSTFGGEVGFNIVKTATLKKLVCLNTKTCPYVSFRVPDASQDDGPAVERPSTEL

SMILES: CS(=O)(=O)c1ccc(-n2cnc(Cl)c2-c2ccccc2)nc1 [Compound 1, 2-(4-chloro-5-phenyl-1H-imidazol-1-yl)-5-(methylsulfonyl)pyridine]
- IC50 [1]: 39.5 µM
- IC50 (COX-1): 219 µM
- t1/2 [2]: 5.37 ± 0.51 h
- AUC(0-t) ([2]; rat, in vivo): 11400 ± 949 ng·h/mL
- C0 ([2]; rat, in vivo): 1700 ± 259 ng/mL
- clearance ([2]; rat, in vivo): 2.83 ± 0.27 mL/min/kg
- half-life ([2]; rat, in vivo, 2 mg/ml, DMSO/PEG 400/30% HP-b-CD): 5.37 h
- Vd ([2]; rat, in vivo, read-out: Vss): 1.16 ± 0.02 L/kg
